# Measurements from patent publication US20050106305A1, “Beverage compositions comprising monatin and methods of making same” (Cargill, Inc., priority 2003, published 2005).
# Assay: Time intensity profile in a soft drink system
# Type: in vivo
# Details: 80 ppm monatin, 10.0% sucrose, 200 ppm sucralose, pH 3.2 model soft drink
# Procedure: Solutions of 80 ppm monatin (racemic mix of monatin described in Example 14), 10.0% (w/v) sucrose and 200 ppm sucralose were prepared in the pH 3.2 model soft drink system described in Example 14. The time intensity profile of these solutions then was assessed using the following procedure. Six panelists were included in the study. These panelists were screened for their general sensory acuity and selected for their sensitivity to sweetness intensity and sweetness quality differences. All were experienced in methods of sweetener assessment and had received special training in time intensity evaluations. Training sessions were carried out initially to familiarize the panel with the method of evaluation and scoring the samples over time using a computerized data entry system.
# Samples of each solution (13 mL) were coded and presented individually to panelists, in random order. For each panelist, immediately after swallowing, the computer recorded timed intensity readings on the scale of 0-100 each second, up to 60 seconds. Each solution was evaluated in duplicate.
compound,measurement,setting,value
"NC(CC(O)(Cc1c[nH]c2ccccc12)C(=O)O)C(=O)O (racemic) [Monatin, 2-hydroxy-2-(indol-3-ylmethyl)-4-aminoglutaric acid]",Area Under Curve,,117.3 unit × s
same,Rate of Decline,,2.2 unit/s
same,Rate of Onset,,14.9 unit/s
same,Time for Sweetness to Decline to Half Maximum Value,,34.2 s
same,Time to Half Maximum Sweetness,,2.4 s
same,Time to Maximum Sweetness,,9.0 s
same,Intensity of Maximum Sweetness,scale 0-100,66.6 unit
